The results in this text go back to ChEMBL document CHEMBL2016477, “Pimarane diterpenes from the fungus Epicoccum sp. HS-1 associated with Apostichopus japonicus” (Bioorg Med Chem Lett, 2012).

Structures are written as SMILES. ≈ marks a conversion by molar mass, not a printed value. Some results are limits rather than exact numbers.

Experiment [1] can be described thus: Cytotoxicity against multidrug resistant human KBv200 cells expressing p-glycoprotein. In kind it is functional, cell-based.
The test system of another experiment is KB. As to the kind of experiment: Cytotoxicity against human KB cells. In kind it is functional, cell-based.

A word on the IC50: it is the concentration needed to halve the response being measured. Lower therefore signals inhibition by little substance. On to `C=C[C@]1(C)C=C2[C@@H](O)C[C@H]3C(C)(C)CCC[C@]3(C)[C@@]2(O)CC1`, for which the IC50 (in experiment [1]; in the experiment with KB) was > 100 µg/mL throughout.

`C=C[C@]1(C)C=C2C(=O)C(O)=C3C(C)(C)CCC[C@]3(C)[C@@]2(O)CC1`: the figures for the IC50 (in experiment [1]; with KB) were 14.5 µg/mL (≈ 45.7 µM) and 20.7 µg/mL (≈ 65.5 µM), respectively.

On to `C=C[C@]1(C)C=C2C(=O)[C@@]3(O)OC[C@@]4(CCCC(C)(C)[C@@]43O)[C@@]2(O)[C@H](O)C1` [DIAPORTHINS B], for which the IC50 in experiment [1] worked out at 6.52 µg/mL (≈ 17.9 µM); in the experiment on KB, 3.86 µg/mL (≈ 10.6 µM).
